# Measured values: publication PMC8550792, “Evolution of kinase polypharmacology across HSP90 drug discovery” (Cell Chemical Biology, 2021)
# Tests used:
# Experiment in all cases: biochemical
# Assay type in all cases: biochemical
# [1] = biological target: T1, 382 unique human kinases (Homo sapiens, UniProt Q86Z02); details: HIPK1, compound at 10 uM, duplicate values; for remaining activity at 10 µM: read-out: % Enzyme Activity (relative to DMSO controls)
# T1 construct: purchased Reaction Biology (HotSpot contract assay)
# [2] = biological target: T2, 382 unique human kinases (Homo sapiens, UniProt Q16512); details: PKN1/PRK1, 10 uM; for remaining activity at 10 µM: read-out: % Enzyme Activity (relative to DMSO controls)
# T2 construct: purchased Reaction Biology (HotSpot contract assay)
# [3] = biological target: T3, 382 unique human kinases (Homo sapiens, UniProt P25098); details: GRK2, compound at 10 uM, duplicate values; for remaining activity at 10 µM: read-out: % Enzyme Activity (relative to DMSO controls)
# T3 construct: purchased Reaction Biology (HotSpot contract assay)
# T3 sequence (P25098 1-689): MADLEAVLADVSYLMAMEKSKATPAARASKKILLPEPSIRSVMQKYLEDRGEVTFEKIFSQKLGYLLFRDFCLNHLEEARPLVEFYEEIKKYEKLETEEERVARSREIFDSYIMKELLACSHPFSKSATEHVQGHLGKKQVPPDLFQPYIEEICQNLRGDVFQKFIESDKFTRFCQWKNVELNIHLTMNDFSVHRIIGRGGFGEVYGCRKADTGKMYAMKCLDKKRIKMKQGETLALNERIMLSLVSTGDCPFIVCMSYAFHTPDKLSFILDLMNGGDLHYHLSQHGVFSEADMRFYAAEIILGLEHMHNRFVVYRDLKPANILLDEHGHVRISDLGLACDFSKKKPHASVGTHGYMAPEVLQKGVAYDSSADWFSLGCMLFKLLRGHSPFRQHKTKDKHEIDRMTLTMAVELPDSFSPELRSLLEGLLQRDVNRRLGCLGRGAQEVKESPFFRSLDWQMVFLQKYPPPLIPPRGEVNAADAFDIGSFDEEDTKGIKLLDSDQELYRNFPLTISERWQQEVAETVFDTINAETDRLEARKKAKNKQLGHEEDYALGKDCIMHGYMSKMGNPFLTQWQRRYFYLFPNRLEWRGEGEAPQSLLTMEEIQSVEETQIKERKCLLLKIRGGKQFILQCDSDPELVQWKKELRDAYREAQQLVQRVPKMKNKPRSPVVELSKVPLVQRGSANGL
# [4] = biological target: T4, 382 unique human kinases (Homo sapiens, UniProt P32298); details: kinase GRK4, compound 10 uM; for remaining activity at 10 µM: read-out: % Enzyme Activity (relative to DMSO controls)
# T4 construct: purchased Reaction Biology (HotSpot contract assay)
# [5] = biological target: T5, 382 unique human kinases (Homo sapiens, UniProt P54760); details: EPHB4, [ATP] 20 µM, compound 10 uM; for remaining activity at 10 µM: read-out: % Enzyme Activity (relative to DMSO controls)
# T5 construct: purchased Reaction Biology (HotSpot contract assay)
# T5 sequence (P54760 16-987): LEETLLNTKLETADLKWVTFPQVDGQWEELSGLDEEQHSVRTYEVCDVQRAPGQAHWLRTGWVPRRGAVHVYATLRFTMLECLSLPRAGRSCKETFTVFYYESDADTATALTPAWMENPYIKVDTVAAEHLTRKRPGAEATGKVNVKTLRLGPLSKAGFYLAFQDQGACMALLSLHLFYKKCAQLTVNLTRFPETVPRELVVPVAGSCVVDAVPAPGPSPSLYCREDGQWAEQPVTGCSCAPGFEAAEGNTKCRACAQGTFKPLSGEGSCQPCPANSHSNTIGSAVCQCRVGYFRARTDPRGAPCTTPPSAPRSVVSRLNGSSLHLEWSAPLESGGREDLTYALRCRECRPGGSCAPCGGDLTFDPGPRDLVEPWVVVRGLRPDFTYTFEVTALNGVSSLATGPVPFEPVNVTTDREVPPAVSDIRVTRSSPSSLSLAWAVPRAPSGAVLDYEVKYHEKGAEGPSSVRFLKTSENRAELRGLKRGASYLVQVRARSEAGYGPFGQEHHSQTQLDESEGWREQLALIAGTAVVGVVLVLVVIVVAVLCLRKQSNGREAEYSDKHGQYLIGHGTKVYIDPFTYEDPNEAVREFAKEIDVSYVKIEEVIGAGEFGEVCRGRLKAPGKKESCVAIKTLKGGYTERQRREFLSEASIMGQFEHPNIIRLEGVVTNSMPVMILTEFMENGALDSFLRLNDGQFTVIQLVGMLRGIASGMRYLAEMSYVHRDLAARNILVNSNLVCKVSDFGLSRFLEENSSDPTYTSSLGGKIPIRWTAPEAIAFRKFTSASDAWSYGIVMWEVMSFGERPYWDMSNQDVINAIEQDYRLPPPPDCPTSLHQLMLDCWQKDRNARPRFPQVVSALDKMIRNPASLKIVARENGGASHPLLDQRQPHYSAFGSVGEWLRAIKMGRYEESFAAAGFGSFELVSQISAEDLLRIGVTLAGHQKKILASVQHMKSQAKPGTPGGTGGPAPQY
# [6] = biological target: T6, 382 unique human kinases (Homo sapiens, UniProt Q9H093); details: SNARK/NUAK2, 10 uM; for remaining activity at 10 µM: read-out: % Enzyme Activity (relative to DMSO controls)
# T6 construct: purchased Reaction Biology (HotSpot contract assay)
# T6 sequence (Q9H093 1-628): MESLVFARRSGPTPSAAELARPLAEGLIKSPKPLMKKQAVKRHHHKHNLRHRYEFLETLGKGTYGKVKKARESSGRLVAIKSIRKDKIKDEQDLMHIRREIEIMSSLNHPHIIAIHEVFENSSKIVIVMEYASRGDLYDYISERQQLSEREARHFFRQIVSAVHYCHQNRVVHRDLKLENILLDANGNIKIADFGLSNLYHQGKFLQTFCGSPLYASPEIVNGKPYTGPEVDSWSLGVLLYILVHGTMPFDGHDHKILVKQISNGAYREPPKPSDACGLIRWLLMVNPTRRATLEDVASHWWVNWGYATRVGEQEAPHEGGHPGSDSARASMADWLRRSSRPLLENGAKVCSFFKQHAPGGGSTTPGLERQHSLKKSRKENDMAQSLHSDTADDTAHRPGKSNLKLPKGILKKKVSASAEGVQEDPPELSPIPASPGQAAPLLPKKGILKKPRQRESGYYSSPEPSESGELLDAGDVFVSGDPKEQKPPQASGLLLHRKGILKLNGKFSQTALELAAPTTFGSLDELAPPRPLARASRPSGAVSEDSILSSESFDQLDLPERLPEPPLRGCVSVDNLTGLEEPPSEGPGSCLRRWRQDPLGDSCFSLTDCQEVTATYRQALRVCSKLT
# [7] = biological target: T7, 382 unique human kinases (Homo sapiens, UniProt P07949, G691S); details: RET (G691S), 10 uM; for remaining activity at 10 µM: read-out: % Enzyme Activity (relative to DMSO controls)
# T7 construct: purchased Reaction Biology (HotSpot contract assay)
# [8] = biological target: T8, 382 unique human kinases (Homo sapiens, UniProt Q16620); details: TRKB, [ATP] 50 µM, compound 10 uM; for remaining activity at 10 µM: read-out: % Enzyme Activity (relative to DMSO controls)
# T8 construct: purchased Reaction Biology (HotSpot contract assay)
# [9] = biological target: T9, 382 unique human kinases (Homo sapiens, UniProt P10721, D816Y); details: c-Kit (D816Y), [ATP] 10 µM, compound 10 uM; for remaining activity at 10 µM: read-out: % Enzyme Activity (relative to DMSO controls)
# T9 construct: purchased Reaction Biology (HotSpot contract assay)
# T2 sequence (Q16512 whole entry): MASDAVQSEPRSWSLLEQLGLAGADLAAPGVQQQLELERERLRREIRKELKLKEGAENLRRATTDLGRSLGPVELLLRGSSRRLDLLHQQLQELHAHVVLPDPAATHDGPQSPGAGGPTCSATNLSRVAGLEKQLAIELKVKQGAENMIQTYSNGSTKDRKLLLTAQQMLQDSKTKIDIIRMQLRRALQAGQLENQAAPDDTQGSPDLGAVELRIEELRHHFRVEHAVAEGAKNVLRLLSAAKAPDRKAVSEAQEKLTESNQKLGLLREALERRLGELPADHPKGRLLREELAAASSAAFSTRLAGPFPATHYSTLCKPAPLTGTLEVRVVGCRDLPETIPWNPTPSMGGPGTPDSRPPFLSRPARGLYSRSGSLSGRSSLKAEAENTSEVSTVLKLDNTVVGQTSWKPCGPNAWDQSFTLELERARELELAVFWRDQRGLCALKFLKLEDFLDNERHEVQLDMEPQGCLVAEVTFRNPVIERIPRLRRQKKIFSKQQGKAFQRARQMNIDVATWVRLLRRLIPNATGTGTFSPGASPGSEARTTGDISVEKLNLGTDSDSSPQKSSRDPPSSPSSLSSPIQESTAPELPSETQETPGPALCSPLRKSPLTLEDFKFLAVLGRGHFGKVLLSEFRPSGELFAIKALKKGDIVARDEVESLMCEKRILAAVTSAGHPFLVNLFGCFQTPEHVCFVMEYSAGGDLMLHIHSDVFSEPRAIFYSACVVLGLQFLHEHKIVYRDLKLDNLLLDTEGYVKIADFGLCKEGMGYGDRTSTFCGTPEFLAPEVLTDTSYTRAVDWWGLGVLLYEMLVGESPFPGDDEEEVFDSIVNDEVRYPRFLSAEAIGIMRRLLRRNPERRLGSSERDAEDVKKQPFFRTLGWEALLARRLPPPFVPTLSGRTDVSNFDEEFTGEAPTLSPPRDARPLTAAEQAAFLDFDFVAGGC
# T8 sequence (Q16620 32-822): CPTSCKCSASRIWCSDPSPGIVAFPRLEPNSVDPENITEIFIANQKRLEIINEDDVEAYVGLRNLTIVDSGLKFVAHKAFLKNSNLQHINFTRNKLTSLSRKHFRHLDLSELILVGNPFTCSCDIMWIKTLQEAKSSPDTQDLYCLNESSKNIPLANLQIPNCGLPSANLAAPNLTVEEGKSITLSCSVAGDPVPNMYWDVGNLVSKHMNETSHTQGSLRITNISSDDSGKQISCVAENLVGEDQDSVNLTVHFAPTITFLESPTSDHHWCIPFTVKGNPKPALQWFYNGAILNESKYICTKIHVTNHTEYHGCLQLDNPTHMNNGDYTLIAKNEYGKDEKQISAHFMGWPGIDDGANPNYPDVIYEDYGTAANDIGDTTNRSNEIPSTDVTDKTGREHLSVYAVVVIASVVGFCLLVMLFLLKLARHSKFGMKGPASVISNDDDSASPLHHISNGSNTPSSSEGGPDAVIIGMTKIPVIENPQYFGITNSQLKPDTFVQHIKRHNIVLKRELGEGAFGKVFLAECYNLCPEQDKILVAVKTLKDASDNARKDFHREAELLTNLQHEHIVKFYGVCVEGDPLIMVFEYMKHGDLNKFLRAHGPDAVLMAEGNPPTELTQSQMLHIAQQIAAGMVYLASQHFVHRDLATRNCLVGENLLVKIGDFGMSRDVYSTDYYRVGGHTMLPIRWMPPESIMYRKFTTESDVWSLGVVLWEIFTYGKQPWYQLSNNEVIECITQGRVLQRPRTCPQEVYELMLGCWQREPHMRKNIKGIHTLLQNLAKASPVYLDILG
# T7 sequence (P07949 29-1114 G691S): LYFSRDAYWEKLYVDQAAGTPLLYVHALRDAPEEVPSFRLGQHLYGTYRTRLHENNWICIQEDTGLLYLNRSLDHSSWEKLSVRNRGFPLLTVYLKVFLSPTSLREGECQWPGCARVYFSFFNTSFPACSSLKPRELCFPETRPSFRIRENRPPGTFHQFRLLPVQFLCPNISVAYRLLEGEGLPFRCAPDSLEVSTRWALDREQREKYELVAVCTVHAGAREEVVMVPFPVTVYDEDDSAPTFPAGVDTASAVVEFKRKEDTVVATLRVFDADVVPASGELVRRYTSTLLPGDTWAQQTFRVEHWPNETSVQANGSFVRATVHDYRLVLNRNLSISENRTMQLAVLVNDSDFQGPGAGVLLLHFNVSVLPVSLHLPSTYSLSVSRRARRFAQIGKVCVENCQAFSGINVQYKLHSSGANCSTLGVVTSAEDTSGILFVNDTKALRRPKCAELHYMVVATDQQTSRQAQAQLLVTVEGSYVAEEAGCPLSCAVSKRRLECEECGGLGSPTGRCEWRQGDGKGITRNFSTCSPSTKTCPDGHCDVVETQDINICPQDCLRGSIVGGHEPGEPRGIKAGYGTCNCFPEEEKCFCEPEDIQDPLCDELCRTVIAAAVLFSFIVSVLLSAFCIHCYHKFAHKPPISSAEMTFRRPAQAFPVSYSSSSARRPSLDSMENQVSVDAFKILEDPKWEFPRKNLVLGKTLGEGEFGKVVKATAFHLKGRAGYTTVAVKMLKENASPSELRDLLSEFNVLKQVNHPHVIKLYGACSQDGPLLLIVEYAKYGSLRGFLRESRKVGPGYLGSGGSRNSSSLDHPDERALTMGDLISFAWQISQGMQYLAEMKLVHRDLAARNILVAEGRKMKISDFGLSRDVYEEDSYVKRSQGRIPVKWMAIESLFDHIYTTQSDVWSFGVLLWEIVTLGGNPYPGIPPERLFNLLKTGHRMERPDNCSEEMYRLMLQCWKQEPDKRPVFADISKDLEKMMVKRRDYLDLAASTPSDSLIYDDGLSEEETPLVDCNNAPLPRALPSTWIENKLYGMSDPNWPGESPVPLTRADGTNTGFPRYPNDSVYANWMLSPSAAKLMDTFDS
# T1 sequence (Q86Z02 whole entry): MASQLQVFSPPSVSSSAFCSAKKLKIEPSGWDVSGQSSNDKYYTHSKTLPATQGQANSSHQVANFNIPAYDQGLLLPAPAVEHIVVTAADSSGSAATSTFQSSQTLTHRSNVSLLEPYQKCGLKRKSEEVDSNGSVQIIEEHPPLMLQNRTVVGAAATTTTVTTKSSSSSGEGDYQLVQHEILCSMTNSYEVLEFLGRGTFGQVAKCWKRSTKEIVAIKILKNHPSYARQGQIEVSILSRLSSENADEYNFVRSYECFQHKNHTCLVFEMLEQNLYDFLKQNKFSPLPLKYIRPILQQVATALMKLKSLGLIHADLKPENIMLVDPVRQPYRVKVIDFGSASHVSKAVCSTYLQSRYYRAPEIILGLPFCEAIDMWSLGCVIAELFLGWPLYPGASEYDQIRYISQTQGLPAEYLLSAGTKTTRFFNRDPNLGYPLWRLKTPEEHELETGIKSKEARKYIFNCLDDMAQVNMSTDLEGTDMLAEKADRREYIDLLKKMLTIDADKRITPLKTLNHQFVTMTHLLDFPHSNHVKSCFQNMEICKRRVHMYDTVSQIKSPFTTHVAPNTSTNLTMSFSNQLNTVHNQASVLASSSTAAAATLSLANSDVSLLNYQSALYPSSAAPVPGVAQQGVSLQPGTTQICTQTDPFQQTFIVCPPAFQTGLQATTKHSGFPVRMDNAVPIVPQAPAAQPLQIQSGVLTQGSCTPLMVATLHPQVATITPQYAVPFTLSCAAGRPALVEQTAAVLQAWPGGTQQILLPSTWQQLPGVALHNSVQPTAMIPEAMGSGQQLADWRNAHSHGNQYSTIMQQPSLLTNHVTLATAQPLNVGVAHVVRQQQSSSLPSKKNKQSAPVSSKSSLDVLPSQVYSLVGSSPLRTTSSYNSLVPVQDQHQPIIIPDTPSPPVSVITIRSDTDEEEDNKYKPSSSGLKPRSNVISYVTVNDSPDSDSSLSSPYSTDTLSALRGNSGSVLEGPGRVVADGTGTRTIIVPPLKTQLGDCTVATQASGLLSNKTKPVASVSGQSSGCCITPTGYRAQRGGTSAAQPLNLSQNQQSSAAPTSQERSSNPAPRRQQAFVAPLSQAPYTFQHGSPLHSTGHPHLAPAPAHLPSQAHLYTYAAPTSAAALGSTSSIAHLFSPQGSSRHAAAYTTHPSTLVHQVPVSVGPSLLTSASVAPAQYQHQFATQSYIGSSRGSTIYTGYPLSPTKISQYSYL
# T4 sequence (P32298 whole entry): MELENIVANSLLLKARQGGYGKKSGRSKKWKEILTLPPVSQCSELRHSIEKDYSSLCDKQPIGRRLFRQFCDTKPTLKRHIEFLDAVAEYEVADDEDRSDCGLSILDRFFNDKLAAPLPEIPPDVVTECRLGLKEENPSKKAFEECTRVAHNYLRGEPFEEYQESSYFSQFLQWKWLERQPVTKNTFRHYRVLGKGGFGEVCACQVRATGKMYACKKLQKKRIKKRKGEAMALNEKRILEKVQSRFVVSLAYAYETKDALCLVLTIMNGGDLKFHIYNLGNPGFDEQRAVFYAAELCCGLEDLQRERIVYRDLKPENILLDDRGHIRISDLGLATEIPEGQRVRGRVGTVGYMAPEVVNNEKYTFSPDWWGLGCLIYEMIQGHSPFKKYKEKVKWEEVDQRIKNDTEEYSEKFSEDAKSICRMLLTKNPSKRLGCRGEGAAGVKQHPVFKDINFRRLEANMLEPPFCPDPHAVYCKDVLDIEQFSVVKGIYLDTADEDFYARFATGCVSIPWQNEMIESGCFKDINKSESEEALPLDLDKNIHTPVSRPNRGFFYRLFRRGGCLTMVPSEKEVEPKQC
Compound,remaining activity at 10 µM [1] [%],remaining activity at 10 µM [2] [%],remaining activity at 10 µM [3] [%],remaining activity at 10 µM [4] [%],remaining activity at 10 µM [5] [%],remaining activity at 10 µM [6] [%],remaining activity at 10 µM [7] [%],remaining activity at 10 µM [8] [%],remaining activity at 10 µM [9] [%],% Enzyme Activity (relative to DMSO controls) [1] [%],% Enzyme Activity (relative to DMSO controls) [2] [%],% Enzyme Activity (relative to DMSO controls) [3] [%],% Enzyme Activity (relative to DMSO controls) [4] [%],% Enzyme Activity (relative to DMSO controls) [5] [%],% Enzyme Activity (relative to DMSO controls) [6] [%],% Enzyme Activity (relative to DMSO controls) [7] [%],% Enzyme Activity (relative to DMSO controls) [8] [%],% Enzyme Activity (relative to DMSO controls) [9] [%]
CC(C)c1cc(-c2n[nH]c(=O)n2-c2ccc3c(ccn3C)c2)c(O)cc1O [Ganetespib (STA9090)],133,71.7,104,90,–,–,–,–,–,–,–,–,–,–,–,–,–,–
CC(C)c1cc(-c2n[nH]c(=O)n2-c2ccc3c(ccn3C)c2)c(O)cc1O [Ganetespib],–,–,–,–,33.1,100,98.6,21.5,32.1,–,–,–,–,–,–,–,–,–
CCNC(=O)c1noc(-c2cc(C(C)C)c(O)cc2O)c1-c1ccc(CN2CCOCC2)cc1 [Luminespib (AUY-922)],104,75.6,106,97.7,–,–,–,–,–,102.12,73.04,104.97,97.37,–,–,–,–,–
CCNC(=O)c1noc(-c2cc(C(C)C)c(O)cc2O)c1-c1ccc(CN2CCOCC2)cc1 [Luminespib],–,–,–,–,82.2,98.6,101,98.1,57.9,–,–,–,–,81.04,96.83,100.12,97.46,53.55
